According to patent publication US8062639B2 (priority 2008, dated 2011):

Tests used:
conscious rats = format: in vivo, rat; conditions: for death after hemorrhage plus infusion / restoration of plasma/blood volume after hemorrhage: 20 ml/kg hemorrhage plus infusion of 2 mg/ml (5 ml/hr) (FIG. 3); for change in plasma volume, infusion alone: infusion of 2 mg/ml (5 ml/hr), no hemorrhage, 8 rats/group (FIG. 3)
soluble dog Na/K ATPase = target: T1, soluble dog Na/K ATPase (Canis lupus familiaris, UniProt P50997); test: Na/K ATPase activity by pNPP conversion; format: biochemical; conditions: rate at 400 nm over 30 min, various concentrations (FIG. 2)
T1 construct: soluble Dog kidney Na/K ATPase; purchased SigmaAldrich; host or cells: dog kidney (the tissue is named only in the general description)

Structure (SMILES) | death after hemorrhage plus infusion (conscious rats) | restoration of plasma/blood volume after hemorrhage (conscious rats) | change in plasma volume, infusion alone (conscious rats) | inhibition of Na/K ATPase (conversion of pNPP to pNP) (soluble dog Na/K ATPase)
C[C@]12CC[C@H](O)C[C@H]1CC[C@@H]1[C@@H]2CC[C@]2(C)[C@@H](c3ccc(=O)oc3)CC[C@]12O [Bufalin] | leads to death | prevents restoration | no effect on plasma volume | 
C[C@@H]1O[C@@H](O[C@H]2C[C@@H](O)[C@]3(CO)[C@H]4[C@H](O)C[C@]5(C)[C@@H](C6=CC(=O)OC6)CC[C@]5(O)[C@@H]4CC[C@]3(O)C2)[C@H](O)[C@H](O)[C@H]1O [ouabain] | leads to death | prevents restoration | no effect on plasma volume | inhibits Na/K ATPase in a dose-response manner
C[C@]12CC[C@H](O)C[C@@]1(O)CC[C@@H]1[C@@H]2CC[C@]2(C)[C@@H](c3ccc(=O)oc3)C[C@H]3O[C@]132 [marinobufogenin] |  | did not have this effect |  | inhibits Na/K ATPase in a dose-response manner
